Data from PMC5387716, “Discovery of monocarbonyl curcumin-BTP hybrids as STAT3 inhibitors for drug-sensitive and drug-resistant breast cancer therapy” (Scientific Reports, 2017).

Tests used:
MCF-10A cells = experiment: MTT anti-proliferative assay, MCF-10A; assay type: cell-based, human; conditions: 48 h, normal breast epithelial cells, Table 2 prints no unit, μM
Description: (§1) All cell lines were purchased from Cell Bank of Shanghai Institute of Biochemistry and Cell Biology, Chinese Academy of Sciences (Shanghai, China). Human breast carcinoma cells (MCF-7 and MCF-7/DOX), breast epithelial cells (MCF-10A) and normal human liver cells (LO2) were maintained in RPMI-1640 medium. All cells were supplemented with 12% fetal bovine serum containing 50 μg/ml penicillin and 50 μg/ml streptomycin. Cells were grown to 80% confluency in a tissue culture flask at 37 °C in a humidified atmosphere containing 5% CO2, and then were trypsinized with 1 × Trypsin-Versene and split. The MCF-7/DOX cell line we used was established from its parental cell line MCF-7 cell by gradually increasing the concentration of DOX to which the cells were exposed in a stepwise manner over a period of 8 months. […] The cells were incubated in drug-free medium for at least 1 week before use.
(§2) Cells (MCF-7, MCF-7/DOX, MCF-10A, LO2) were seeded in 96-well plates at a density of 3,000–6,000 cells per well. The cells were incubated overnight (16 h) in a humidified 5% CO2 incubator at 37 °C. After media removal, different concentrations of test compounds were added in triplicate to the plates in 200 μL of fresh media and were incubated with the cells at 37 °C for 48 h. […] Cell viability was evaluated using 3-(4, 5-dimethylthiazolyl)-2,5-diphenyltetrazoliumbromide (MTT). The absorbance was read by an ELISA reader (SpectraMax Plus384, Molecular Devices, Sunnyvale, CA) at a test wavelength of 570 nm and a reference wavelength of 630 nm. Cell viability was calculated using the following formula: […]

LO2 cells = experiment: MTT anti-proliferative assay, LO2; assay type: cell-based; conditions: normal human liver cells, Table 2 prints no unit, μM
Description: as §1, §2

STAT3 = experiment: Immunofluorescence of p-STAT3 nuclear translocation; assay type: cell-based, human; conditions: MCF-7 cells, 6 h then IL-6 50 ng/ml 30 min
Description: The basic protocol for the analysis of p-STAT3 subcellular location has been previously described. Briefly, MCF-7 cells were starved overnight, followed by incubation with 6b for 6 h. Cells were then stimulated with 50 ng/ml IL-6 for 30 min before being harvested in Tris-buffered saline (TBS) containing 1 mM sodium orthovanadate. Cells were transferred to polylysine-coated slides by cytospin and air dried for 20 min at room temperature. After being fixed in 2% of paraformaldehyde for 10 min and permeabilized in 0.1% Triton X-100 for 5 min, cells were blocked in TBS containing 5% bovine serum albumin for 1 h at room temperature before being stained with p-STAT3 (Tyr705) overnight at 4 °C. Then, cells were gently washed and incubated with FITC–conjugated, goat, anti-rabbit IgG (Beyotime Biotechnology Ltd). Finally, slides were incubated with 5 μg/ml of 4′,6-diamidino-2-phenylindole (DAPI, Beyotime) for 5 min. The subcellular location and relative abundance of p-STAT3 were immediately analyzed with an ImageXpress Micro Confocal analysis.

Bcl-2 = experiment: Western blot of Bcl-2; assay type: cell-based, human; conditions: MCF-7 and MCF-7/DOX cells, 24 h
Description: MCF-7 or MCF-7/DOX cells were incubated with various concentrations of 6b for 24 h. After trypsinization, cells were treated with 1× RIPA lysis buffer (50 mM Tris–HCl, pH 7.4, 150 mM NaCl, 0.25% deoxycholic acid, 1% NP-40, 1 mM EDTA and protease inhibitors) (Amresco, Solon, USA) to extract the total proteins. An aliquot of proteins from the total cell lysates (30 to 60 μg/lane) was separated by sodium dodecyl sulfate (10%) polyacrylamide gel electrophoresis (SDS–PAGE, Bio-Rad Laboratories, Hercules, CA), wet-transferred to NC membrane (Bio-Rad Laboratories, Hercules, CA) and blotted with primary antibodies specific for STAT3, p-STAT3, p-Jak2, Jak2, p-Src, Src, Erk, P-Erk, PARP, cleaved PARP, Bcl-2, Bax, Cyclin D1, P-gp and GAPDH. Bound immuno-complexes were detected using ChemiDOC™ XRS + system (Bio-Rad Laboratories, Hercules, CA).

[1] = test system: PARP, Caspase 9 and Caspase 3; experiment: Western blot of cleaved PARP, Caspase 9 and Caspase 3; assay type: cell-based, human
MCF-7/DOX cells [2] = experiment: Colony survival assay, MCF-7/DOX; assay type: cell-based, human; conditions: 24 h treatment, 14 d culture
Description: MCF-7 or MCF-7/DOX cells were cultured a 6-well plate at a density of 800–1,000 cells/well with regular growth medium. Cells were treated for 24 h with the vehicle and 6b at 0.15–1 μM on the following day. Cells were allowed to grow for 10–14 d until colonies were visible. Crystal violet solution (Sigma, St. Louis, MO, USA) was used to stain the colonies for 4 hours and colonies were imaged.

MCF-7/DOX cells [3] = experiment: Flow cytometry of the cell cycle, MCF-7/DOX; assay type: cell-based, human; conditions: 24 h
Description: MCF-7 or MCF-7/DOX cells were plated in 6-well culture plates (1.5 × 10^5 cells per well). After incubation overnight, various concentrations of 6b or curcumin were added and cells were incubated for 24 h. Cells were harvested, washed with cold PBS, and incubated with pre-cooled 70% ethanol for a minimum of 4 h at 4 °C to fix them. The cells were then centrifuged, carefully aspirated from the supernatant, and re-suspended in a propidium iodide (final concentration, 40 μg/ml) and RNase A (final concentration, 100 μg/ml) solution at a final cell density of 0.5 × 10^6 cells/ml. The suspension was incubated at 37 °C for 30 min prior to analysis by flow cytometry.

MCF-7 cells = experiment: ROS detection by DCFH-DA flow cytometry, MCF-7; assay type: cell-based, human; conditions: MCF-7, different concentrations (1, 2, 4 μM), 24 h
Description: (§3) MCF-7 or MCF-7/DOX cells were seeded at a density of 3 × 10^5 cells per well of a 6-well plate and treated with various concentrations of 6b (0, 1, 2, 4 μM) or 4 μM curcumin for 24 h. DCFH-DA was dissolved in serum-free medium and diluted to a final concentration of 10 μM. After treatment with 6b, the growth media was replaced with serum-free medium containing the probe. After incubation for 20 min at 37 °C, cells were washed with serum-free medium twice, digested by trypsin and resuspended in pre-warmed PBS buffer. The samples were then subjected to a flow cytometry assay using a BD FACSCalibur flow cytometer (Becton & Dickinson Company, Franklin Lakes, NJ).

MCF-7/DOX cells [4] = experiment: ROS detection by DCFH-DA flow cytometry, MCF-7/DOX; assay type: cell-based, human; conditions: different concentrations (1, 2, 4 μM), 24 h
Description: as §3

COc1ccc(/C=C/C(=O)N2CCN(C(=O)C3=Cc4cc(Br)ccc4S3(=O)=O)CC2)cc1 [Compound 6b, (E)-1-(4-(5-bromo-1,1-dioxidobenzo[b]thiophene-2-carbonyl)piperazin-1-yl)-3-(4-methoxyphenyl)prop-2-en-1-one]
IC50 (MCF-10A cells): 7.72 ± 0.56 µM | IC50 (MCF-10A cells; Homo sapiens, MCF-10A): 7.7 µM | IC50 (LO2 cells; 48 h): 8.31 ± 0.41 µM | IC50 (LO2 cells; Homo sapiens, L02, 48 h): 8.3 µM | p-STAT3 level in the nucleus (STAT3): sharp decrease | expression of Bcl-2 (protein) (Bcl-2): inhibited | cleavage of PARP, Caspase 9 and Caspase 3 ([1]; MCF-7 and MCF-7/DOX cells): induced the cleavage | cleaved PARP ([1]; MCF-10A cells, concentrations up to 4 μM): little | clonogenic ability / colony formation (MCF-7/DOX cells [2]; 0.25 μM): significant reduction in clonogenic ability | clonogenic ability / colony formation (MCF-7/DOX cells [2]; 0.5 μM): almost a cessation of colony formation | cells in the Sub-G1 phase (MCF-7/DOX cells [3]): significant increase | percentage of cells in the G0/G1 phase (MCF-7/DOX cells [3]): increased | increase of ROS levels (MCF-7 cells): 2–8 fold | increase of ROS levels (MCF-7/DOX cells [4]): 2–8 fold
